Reference: patent publication US12448389B2, “BRM targeting compounds and associated methods of use” (Prelude Therapeutics Incorporated, priority 2020, dated 2025)

What was measured:
Assay type in all cases: cell-based
SMARCA2 = target: T1, SMARCA2 (Homo sapiens, UniProt P51531); assay: SMARCA2 protein degradation in NCIH520 cells by In Cell Western (ICW); settings: highest concentration 1 μM; for DC50: H520 cells, overnight incubation (maximum 18 hours), read-out: DC50 (SM2_H520): SMARCA2 degradation potency; for Dmax: NCI-H520, overnight incubation (maximum 18 hours), read-out: Dmax % (SM2_H520): maximum SMARCA2 degradation within the concentrations tested
T1 construct: endogenous in cells; host or cells: NCI-H520 (given as NCIH520 / NCIH1520 / H520)
Method: (§1) Compounds were dissolved in DMSO to make 10 mM stock and 3-fold series dilutions were further conducted keeping the highest concentration 10 μM. NCIH11693 and NCIH1520 cells were maintained in PRMI 1640 medium (Corning Cellgro, Catalog #: 10-040-CV) supplemented with 10% v/v FBS (GE Healthcare, Catalog #: SH30910.03) by splitting 1:3 twice a week.
(§2) SMACRA2 and SMARCA4 Protein Degradation DC50 Values in NCIH1693 and NCIH520 Cells by in Cell Western (ICW) Analysis.
(§3) Cells were trypsinized and 30 thousand cells/well were seeded into 384-well plates and were allowed to grow for 1-2 hours at 37° C. Eight-point, 3-fold serial dilutions of compounds from 0.5 mM stocks were added to the cells (using digital Dispenser D300-Tecan, keeping highest concentration 1 μM and normalizing with DMSO at the highest dispensed volume). Plates were incubated at 37° C. for overnight (maximum 18 hours). Cells incubated with DMSO was used as a vehicle control.
(§4) To perform In Cell Western, medium was removed from all the wells leaving cells attached to the surface. After removing the medium, cells were fixed within the plates with 40 μL of 4% formaldehyde by incubating at room temperature for 30 minutes, and then permeabilized with wash buffer (1×PBS with 0.1% Triton X-100) by washing the plate 5 times with 50 μL/well. Before labeling with primary antibodies, cells were blocked with 30 μL/well of blocking buffer (Licor Odyssey blocking buffer PBS #927-40000) for 30 minutes at room temperature. To measure SMARCA2 or SMARCA4 proteins, cells were labeled with 20 μL/well of anti SMARCA2 or SMACRA4 antibodies (Cell Signaling BRM #11966S 1:800, Cell Signaling BRG #49360S 1:800) diluted in Li-Cor Odyssey blocking buffer-PBS #927-40000, followed by overnight incubation at 4° C.
(§5) The next day, plates were washed 5×5 minutes with 50 μL/well of washing buffer to remove all the excess primary antibody and then 20 μL from a mixture of secondary antibody and fluorescent DNA specific dye (Goat anti rabbit 1:500 IRDye-800CW #92632211, and DRAQ5™ 1:2000-#ab108410) was added to each well. Plates were incubated for 1 hour at room temperature with gentle rocking. Cells were washed 5 times with 50 μL/well wash buffer, followed by one last wash with DI water, followed by 10 mins drying at 37° C. oven before scanning. Plates were scanned using Li-Cor Odyssey CLx imaging system to acquire integrated intensities at 700 nm and 800 nm. SMARCA signals were normalized to total cell count and then these normalized values were used to calculate the percent degradation relative to DMSO control and maximum inhibition. DC50s were calculated by using the GraphPad Prism4 program based on sigmoidal dose response equation ([Inhibitor] vs. normalized response-Variable slope).
(§6) In Table 36, the DC50/Dmax% (SM2_H520) refers to SMARCA2 degradation potency/maximum SMARCA2 degradation within the concentrations in H520 cells and DC50/Dmax% (SM4_H520) refers to SMARCA4 degradation potency/maximum SMARCA4 degradation within the concentrations tested in H520 cells.

SMARCA4 = target: T2, SMARCA4 (Homo sapiens, UniProt P51532); assay: SMARCA4 protein degradation in NCIH520 cells by In Cell Western (ICW); settings: highest concentration 1 μM; for DC50: H520 cells, overnight incubation (maximum 18 hours), read-out: DC50 (SM4_H520): SMARCA4 degradation potency; for Dmax: NCI-H520, overnight incubation (maximum 18 hours), read-out: Dmax % (SM4_H520): maximum SMARCA4 degradation within the concentrations tested
T2 construct: endogenous in cells; host or cells: NCI-H520 (given as NCIH520 / NCIH1520 / H520)
Method: as §1, §2, §3, §4, §5, §6

SMARCA2-HiBiT = target: T3, SMARCA2-HiBiT (Homo sapiens, UniProt P51531); assay: SMARCA2 HiBiT degradation assay in HeLa cells; settings: 18 hours incubation; for DC50: read-out: HeLa_HiBit-SM2 DC50; for Dmax: HeLa, read-out: HeLa-HiBit-SM2 Dmax (%)
T3 construct: SMARCA2-HiBiT knock-in Hela monoclonal cell (CS302366); host or cells: HeLa monoclonal knock-in line (CRISPR HiBiT knock-in at the endogenous locus, heterozygous)
How it was run: (§7)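 HeLa monoclonal lines with heterozygous HiBiT knock-in were seeded at 2500 cells/well in EMEM with 10% FBS and treated with compound for 18 h at 37 °C. Remaining tagged protein was measured by Nano-Glo HiBiT lytic luminescence after 30–60 min at RT, and values came from curve fitting.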

SMARCA4-HiBiT = target: T4, SMARCA4-HiBiT (Homo sapiens, UniProt P51532); assay: SMARCA4 HiBiT degradation assay in HeLa cells; settings: 18 hours incubation; for DC50: read-out: HeLa-HiBit-SM4 DC50; for Dmax: HeLa, read-out: HeLa-HiBit-SM4 Dmax (%)
T4 construct: SMARCA4-HiBiT knock-in Hela monoclonal cell (CS3023226); host or cells: HeLa monoclonal knock-in line (CRISPR HiBiT knock-in at the endogenous locus, heterozygous)
How it was run: as §7

T3 sequence (P51531 whole entry): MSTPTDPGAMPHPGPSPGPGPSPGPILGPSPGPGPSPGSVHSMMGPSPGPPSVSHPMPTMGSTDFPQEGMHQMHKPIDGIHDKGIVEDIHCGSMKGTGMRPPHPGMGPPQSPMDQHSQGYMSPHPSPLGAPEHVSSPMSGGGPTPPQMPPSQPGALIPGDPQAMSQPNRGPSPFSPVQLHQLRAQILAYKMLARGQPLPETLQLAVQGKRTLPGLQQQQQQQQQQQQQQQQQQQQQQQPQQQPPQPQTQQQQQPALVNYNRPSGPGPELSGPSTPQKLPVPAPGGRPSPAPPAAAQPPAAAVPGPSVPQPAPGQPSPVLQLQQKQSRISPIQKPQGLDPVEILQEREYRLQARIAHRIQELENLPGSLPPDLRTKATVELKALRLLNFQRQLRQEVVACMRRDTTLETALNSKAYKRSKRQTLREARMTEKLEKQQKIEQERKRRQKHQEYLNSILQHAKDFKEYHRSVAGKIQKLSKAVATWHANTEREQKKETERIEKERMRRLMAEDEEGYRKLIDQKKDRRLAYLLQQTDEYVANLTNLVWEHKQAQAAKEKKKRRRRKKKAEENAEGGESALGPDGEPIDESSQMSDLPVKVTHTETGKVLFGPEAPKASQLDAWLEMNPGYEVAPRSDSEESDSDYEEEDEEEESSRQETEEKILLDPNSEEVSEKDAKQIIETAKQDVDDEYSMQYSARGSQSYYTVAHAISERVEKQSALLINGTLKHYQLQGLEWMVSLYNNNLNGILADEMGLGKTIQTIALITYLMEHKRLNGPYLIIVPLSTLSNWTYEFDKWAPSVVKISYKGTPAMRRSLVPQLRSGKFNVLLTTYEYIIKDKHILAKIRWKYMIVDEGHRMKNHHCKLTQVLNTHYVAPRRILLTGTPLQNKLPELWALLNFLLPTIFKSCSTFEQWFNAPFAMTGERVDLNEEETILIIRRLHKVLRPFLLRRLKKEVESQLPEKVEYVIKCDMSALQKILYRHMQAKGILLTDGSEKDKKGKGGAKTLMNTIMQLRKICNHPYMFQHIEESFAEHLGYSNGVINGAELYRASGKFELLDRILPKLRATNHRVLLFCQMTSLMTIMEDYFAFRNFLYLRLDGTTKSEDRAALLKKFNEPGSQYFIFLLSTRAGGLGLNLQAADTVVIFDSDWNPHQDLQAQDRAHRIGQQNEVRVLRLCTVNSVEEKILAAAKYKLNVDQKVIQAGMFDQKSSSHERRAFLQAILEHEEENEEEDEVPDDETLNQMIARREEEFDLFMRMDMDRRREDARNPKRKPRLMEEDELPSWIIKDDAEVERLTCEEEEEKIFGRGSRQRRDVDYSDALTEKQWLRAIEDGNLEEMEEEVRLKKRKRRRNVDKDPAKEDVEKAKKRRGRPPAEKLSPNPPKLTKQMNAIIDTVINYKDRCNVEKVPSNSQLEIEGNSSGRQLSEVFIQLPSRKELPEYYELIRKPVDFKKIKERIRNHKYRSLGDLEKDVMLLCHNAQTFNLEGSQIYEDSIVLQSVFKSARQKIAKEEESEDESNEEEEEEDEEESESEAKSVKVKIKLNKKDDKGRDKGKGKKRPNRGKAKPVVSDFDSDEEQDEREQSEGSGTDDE
T1 sequence (P51531 whole entry): as above
T4 sequence (P51532 whole entry): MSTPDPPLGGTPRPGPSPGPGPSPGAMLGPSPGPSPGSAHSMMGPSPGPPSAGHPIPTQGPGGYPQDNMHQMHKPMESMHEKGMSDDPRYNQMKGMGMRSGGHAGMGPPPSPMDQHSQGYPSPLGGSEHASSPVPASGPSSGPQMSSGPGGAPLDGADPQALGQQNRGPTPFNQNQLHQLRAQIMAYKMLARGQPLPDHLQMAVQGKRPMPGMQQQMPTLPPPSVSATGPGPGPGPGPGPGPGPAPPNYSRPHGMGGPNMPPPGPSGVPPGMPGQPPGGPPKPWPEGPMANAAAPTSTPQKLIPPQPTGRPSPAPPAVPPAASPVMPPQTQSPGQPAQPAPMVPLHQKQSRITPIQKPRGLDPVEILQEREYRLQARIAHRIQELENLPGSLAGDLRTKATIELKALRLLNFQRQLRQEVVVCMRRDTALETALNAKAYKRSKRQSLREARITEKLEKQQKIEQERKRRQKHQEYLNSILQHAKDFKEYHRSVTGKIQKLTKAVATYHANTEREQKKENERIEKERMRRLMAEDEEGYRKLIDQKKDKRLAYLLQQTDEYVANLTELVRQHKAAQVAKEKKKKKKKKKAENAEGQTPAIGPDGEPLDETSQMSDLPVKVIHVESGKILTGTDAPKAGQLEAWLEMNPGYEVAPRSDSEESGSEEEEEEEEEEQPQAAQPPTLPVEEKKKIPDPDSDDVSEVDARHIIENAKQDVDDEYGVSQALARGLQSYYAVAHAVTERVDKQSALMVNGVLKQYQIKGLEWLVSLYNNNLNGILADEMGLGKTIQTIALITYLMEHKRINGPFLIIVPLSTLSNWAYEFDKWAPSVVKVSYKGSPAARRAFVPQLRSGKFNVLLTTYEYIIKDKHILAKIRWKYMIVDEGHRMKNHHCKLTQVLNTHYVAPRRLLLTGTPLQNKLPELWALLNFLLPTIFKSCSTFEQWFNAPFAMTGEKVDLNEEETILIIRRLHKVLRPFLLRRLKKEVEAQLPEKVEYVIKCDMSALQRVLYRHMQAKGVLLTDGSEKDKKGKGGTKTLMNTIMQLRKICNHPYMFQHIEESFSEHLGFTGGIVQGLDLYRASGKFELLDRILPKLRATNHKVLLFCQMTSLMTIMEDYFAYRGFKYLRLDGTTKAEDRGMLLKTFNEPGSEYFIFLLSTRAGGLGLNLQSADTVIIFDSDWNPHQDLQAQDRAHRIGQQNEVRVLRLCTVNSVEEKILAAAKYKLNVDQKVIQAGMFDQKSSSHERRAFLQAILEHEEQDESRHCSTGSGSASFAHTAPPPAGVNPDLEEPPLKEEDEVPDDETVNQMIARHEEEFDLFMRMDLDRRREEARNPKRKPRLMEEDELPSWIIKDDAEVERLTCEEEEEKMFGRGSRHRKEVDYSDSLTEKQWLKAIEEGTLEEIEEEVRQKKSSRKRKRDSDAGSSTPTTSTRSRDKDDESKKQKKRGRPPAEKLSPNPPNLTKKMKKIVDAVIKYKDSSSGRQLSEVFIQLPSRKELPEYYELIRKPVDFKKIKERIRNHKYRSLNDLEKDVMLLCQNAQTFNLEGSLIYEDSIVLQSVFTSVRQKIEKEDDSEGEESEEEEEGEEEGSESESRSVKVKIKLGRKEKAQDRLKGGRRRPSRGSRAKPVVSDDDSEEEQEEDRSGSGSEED
T2 sequence (P51532 whole entry): as above

SMILES	DC50 (SMARCA2)	Dmax (SMARCA2)	DC50 (SMARCA4)	Dmax (SMARCA4)	DC50 (SMARCA2-HiBiT)	Dmax (SMARCA2-HiBiT)	DC50 (SMARCA4-HiBiT)	Dmax (SMARCA4-HiBiT)
O=C1CCC(N2Cc3cc(CCN4CCC(c5cnc(N6CCN7c8cc(-c9ccccc9O)nnc8NC[C@@H]7C6)nc5)CC4)ccc3C2=O)C(=O)N1 (stereo partly drawn) [Example 4, 3-(5-(2-(4-(2-((R)-2-(2-hydroxyphenyl)-5,6,6a,7,9,10-hexahydro-8H-pyrazino[1′,2′:4,5]pyrazino[2,3-c]pyridazin-8-yl)pyrimidin-5-yl)piperidin-1-yl)ethyl)-1-oxoisoindolin-2-yl)piperidine-2,6-dione]	< 100 nM	> 75%	< 100 nM	> 75%				
O=C1CCC(N2C(=O)c3ccc(N4CCC(OCCN5CCC(N6CCN7c8cc(-c9ccccc9O)nnc8NC[C@H]7C6)CC5)CC4)cc3C2=O)C(=O)N1 (stereo partly drawn) [Example 16, 2-(2,6-Dioxopiperidin-3-yl)-5-(4-(2-(4-((S)-2-(2-hydroxyphenyl)-5,6,6a,7,9,10-hexahydro-8H-pyrazino[1′,2′:4,5]pyrazino[2,3-c]pyridazin-8-yl)piperidin-1-yl)ethoxy)piperidin-1-yl) isoindoline-1,3-dione]	< 100 nM	> 75%	< 100 nM	50 to 75%				
O=C1CCC(n2c3ccc(CCCN4CCC(c5cnc(O[C@H]6C[C@@H]7CNc8nnc(-c9ccccc9O)cc8N7C6)nc5)CC4)cc3c3cccnc32)C(=O)N1 (stereo partly drawn) [Example 23, 3-(6-(3-(4-(2-(((6aR,8S)-2-(2-hydroxyphenyl)-5,6,6a,7,8,9-hexahydro-pyrrolo[1′,2′:4,5]pyrazino[2,3-c]pyridazin-8-yl)oxy)pyrimidin-5-yl)piperidin-1-yl)propyl)-9H-pyrido[2,3-b]indol-9-yl)piperidine-2,6-dione]	< 100 nM	> 75%						
O=C1CCC(N2C(=O)c3ccc(N4CCC(OCCN5CCC(N6CCN7c8cc(-c9ccccc9O)nnc8NC[C@H]7C6)C5)CC4)cc3C2=O)C(=O)N1 (stereo partly drawn) [Example 15, 2-(2,6-Dioxopiperidin-3-yl)-5-(4-(2-(3-((S)-2-(2-hydroxyphenyl)-5,6,6a,7,9,10-hexahydro-8H-pyrazino[1′,2′:4,5]pyrazino[2,3-c]pyridazin-8-yl)pyrrolidin-1-yl)ethoxy)piperidin-1-yl) isoindoline-1,3-dione]	< 100 nM	50 to 75%						
O=C1CCC(N2Cc3ccc(C4CCN(CCN5CCC(CN6CCN7c8cc(-c9ccccc9O)nnc8NC[C@H]7C6)CC5)CC4)cc3C2=O)C(=O)N1 (stereo partly drawn) [Example 120, 3-(6-(1-(2-(4-(((S)-2-(2-hydroxyphenyl)-5,6,6a,7,9,10-hexahydro-8H-pyrazino[1′,2′:4,5]pyrazino[2,3-c]pyridazin-8-yl)methyl)piperidin-1-yl)ethyl)piperidin-4-yl)-1-oxoisoindolin-2-yl) piperidine-2,6-dione]					< 10 nM	> 85%	10 to 100 nM	> 85%
CC1(CN2CCN3c4cc(-c5ccccc5O)nnc4NC[C@H]3C2)CCN(CC2CCN(c3ccc4c(c3)C(=O)N(C3CCC(=O)NC3=O)C4=O)CC2)CC1 (stereo partly drawn) [Example 37, 2-(2,6-dioxopiperidin-3-yl)-5-(4-((4-(((S)-2-(2-hydroxyphenyl)-5,6,6a,7,9,10-hexahydro-8H-pyrazino[1′,2′:4,5]pyrazino[2,3-c]pyridazin-8-yl)methyl)-4-methylpiperidin-1-yl)methyl)piperidin-1-yl)isoindoline-1,3-dione]					< 10 nM	> 85%	< 10 nM	> 85%
O=C1CCC(N2C(=O)c3cccc(N4CCC(CCCN5C6CCC5CC(N5CCN7c8cc(-c9ccccc9O)nnc8NC[C@H]7C5)C6)CC4)c3C2=O)C(=O)N1 (stereo partly drawn) [Example 125, 2-(2,6-dioxopiperidin-3-yl)-4-(4-(3-(3-((S)-2-(2-hydroxyphenyl)-5,6,6a,7,9,10-hexahydro-8H-pyrazino[1′,2′:4,5]pyrazino[2,3-c]pyridazin-8-yl)-8-azabicyclo[3.2.1]octan-8-yl)propyl)piperidin-1-yl)isoindoline-1,3-dione]					< 10 nM	75 to 85%	< 10 nM	75 to 85%
O=C1CCC(N2C(=O)c3ccc(N4CCC(NC56CC(CN7CCN8c9cc(-c%10ccccc%10O)nnc9NC[C@H]8C7)(C5)C6)CC4)cc3C2=O)C(=O)N1 (stereo partly drawn) [Example 135, 2-(2,6-dioxopiperidin-3-yl)-5-(4-((3-(((S)-2-(2-hydroxyphenyl)-5,6,6a,7,9,10-hexahydro-8H-pyrazino[1′,2′:4,5]pyrazino[2,3-c]pyridazin-8-yl)methyl)bicyclo[1.1.1]pentan-1-yl)amino)piperidin-1-yl)isoindoline-1,3-dione]					< 10 nM	75 to 85%	< 10 nM	50 to 75%
O=C1CCC(N2C(=O)c3ccc(N4CCC(CN5CCC6(CN7CCN8c9cc(-c%10ccccc%10O)nnc9NC[C@H]8C7)CC6C5)CC4)cc3C2=O)C(=O)N1 (stereo partly drawn) [Example 171, 2-(2,6-dioxopiperidin-3-yl)-5-[4-[[6-[[(10S)-4-(2-hydroxyphenyl)-1,5,6,8,12-pentazatricyclo[8.4.0.02,7]tetradeca-2,4,6-trien-12-yl]methyl]-3-azabicyclo[4.1.0]heptan-3-yl]methyl]piperidin-1-yl]isoindole-1,3-dione]					< 10 nM	> 85%	< 10 nM	> 85%
O=C1CCC(N2C(=O)c3ccc(N4CCC(CN5C[C@@H]6[C@H](C5)[C@H]6CN5CCN6c7cc(-c8ccccc8O)nnc7NC[C@H]6C5)C(F)(F)C4)cc3C2=O)C(=O)N1 (stereo partly drawn) [Example 182, 5-[3,3-difluoro-4-[[(1S,5R)-6-[[(10S)-4-(2-hydroxyphenyl)-1,5,6,8,12-pentazatricyclo[8.4.0.02,7]tetradeca-2(7),3,5-trien-12-yl]methyl]-3-azabicyclo[3.1.0]hexan-3-yl]methyl]piperidin-1-yl]-2-(2,6-dioxopiperidin-3-yl)isoindole-1,3-dione]					< 10 nM	> 85%	10 to 100 nM	50 to 75%
CC1CC(CN2CCC(CN3CCN4c5cc(-c6ccccc6O)nnc5NC[C@H]4C3)CC2)CCN1c1ccc2c(c1)C(=O)N(C1CCC(=O)NC1=O)C2=O (stereo partly drawn) [Example 148, 2-(2,6-dioxopiperidin-3-yl)-5-(4-((4-(((S)-2-(2-hydroxyphenyl)-5,6,6a,7,9,10-hexahydro-8H-pyrazino[1′,2′:4,5]pyrazino[2,3-c]pyridazin-8-yl)methyl)piperidin-1-yl)methyl)-2-methylpiperidin-1-yl)isoindoline-1,3-dione]					< 10 nM	> 85%	< 10 nM	> 85%
